#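 Following 48 hours of exposure in 96-well plates, responses at five concentrations were used to interpolate endpoints linearly. TGI: concentration producing complete growth inhibition.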
# Experiments:
# Experiment in all cases: NCI-60 cell line screen, 48 h
# 786-0 renal = test system: 786-0 renal
# A498 renal = test system: A498 renal
# A549 NSCLC = test system: A549 NSCLC
# ACHN renal = test system: ACHN renal
# CCRF-CEM leukemia = test system: CCRF-CEM leukemia
# COLO 205 colon = test system: COLO 205 colon
# DU-145 prostate = test system: DU-145 prostate
# EKVX NSCLC = test system: EKVX NSCLC
# HCC-2998 colon = test system: HCC-2998 colon
# HCT-116 colon = test system: HCT-116 colon
# HCT-15 colon = test system: HCT-15 colon
# HL-60(TB) leukemia = test system: HL-60(TB) leukemia
# HOP-62 NSCLC = test system: HOP-62 NSCLC
# HOP-92 NSCLC = test system: HOP-92 NSCLC
# HT29 colon = test system: HT29 colon
# IGROV1 ovarian = test system: IGROV1 ovarian
# K-562 leukemia = test system: K-562 leukemia
# KM12 colon = test system: KM12 colon
# LOX IMVI melanoma = test system: LOX IMVI melanoma
# M14 melanoma = test system: M14 melanoma
# MALME-3M melanoma = test system: MALME-3M melanoma
# MCF7 breast = test system: MCF7 breast
# MDA-MB-231 breast = test system: MDA-MB-231 breast
# MDA-MB-435 = test system: MDA-MB-435
# MDA-N = test system: MDA-N
# MOLT-4 leukemia = test system: MOLT-4 leukemia
# NCI-H226 lung = test system: NCI-H226 lung
# NCI-H23 lung = test system: NCI-H23 lung
# NCI-H460 lung = test system: NCI-H460 lung
# NCI-H522 lung = test system: NCI-H522 lung
# NCI/ADR-RES ovarian = test system: NCI/ADR-RES ovarian
# OVCAR-3 ovarian = test system: OVCAR-3 ovarian
# OVCAR-4 ovarian = test system: OVCAR-4 ovarian
# OVCAR-5 ovarian = test system: OVCAR-5 ovarian
# OVCAR-8 ovarian = test system: OVCAR-8 ovarian
# PC-3 prostate = test system: PC-3 prostate
# RXF 393 renal = test system: RXF 393 renal
# SF-268 CNS = test system: SF-268 CNS
# SF-295 CNS = test system: SF-295 CNS
# SF-539 CNS = test system: SF-539 CNS
# SK-MEL-2 melanoma = test system: SK-MEL-2 melanoma
# SK-MEL-28 melanoma = test system: SK-MEL-28 melanoma
# SK-MEL-5 melanoma = test system: SK-MEL-5 melanoma
# SK-OV-3 ovarian = test system: SK-OV-3 ovarian
# SN12C renal = test system: SN12C renal
# SNB-19 CNS = test system: SNB-19 CNS
# SNB-75 CNS = test system: SNB-75 CNS
# SR leukemia = test system: SR leukemia
# SW-620 colon = test system: SW-620 colon
# T-47D breast = test system: T-47D breast
# TK-10 renal = test system: TK-10 renal
# U251 CNS = test system: U251 CNS
# UACC-257 melanoma = test system: UACC-257 melanoma
# UACC-62 melanoma = test system: UACC-62 melanoma
# UO-31 renal = test system: UO-31 renal
# CAKI-1 renal = test system: CAKI-1 renal
# HS 578T breast = test system: HS 578T breast
# RPMI-8226 leukemia = test system: RPMI-8226 leukemia
smiles,measurement,setting,value
CCCCCCCCCCN(CCCCCCCCCC)C(=O)COc1c2cc(C(C)(C)C)cc1Cc1cc(C(C)(C)C)cc(c1OCC(=O)N(CCCCCCCCCC)CCCCCCCCCC)Cc1cc(C(C)(C)C)cc(c1OCC(=O)N(CCCCCCCCCC)CCCCCCCCCC)Cc1cc(C(C)(C)C)cc(c1OCC(=O)N(CCCCCCCCCC)CCCCCCCCCC)C2,TGI,786-0 renal,23.3 µM
same,TGI,A498 renal,29.1 µM
same,TGI,A549 NSCLC,30.4 µM
same,TGI,ACHN renal,28.1 µM
same,TGI,CCRF-CEM leukemia,14.1 µM
same,TGI,COLO 205 colon,29.2 µM
same,TGI,DU-145 prostate,31.8 µM
same,TGI,EKVX NSCLC,25.2 µM
same,TGI,HCC-2998 colon,22.3 µM
same,TGI,HCT-116 colon,5.6 µM
same,TGI,HCT-15 colon,21.7 µM
same,TGI,HL-60(TB) leukemia,30.9 µM
same,TGI,HOP-62 NSCLC,31.4 µM
same,TGI,HOP-92 NSCLC,11.4 µM
same,TGI,HT29 colon,12.3 µM
same,TGI,IGROV1 ovarian,24.8 µM
same,TGI,K-562 leukemia,4.87 µM
same,TGI,KM12 colon,24.5 µM
same,TGI,LOX IMVI melanoma,23.7 µM
same,TGI,M14 melanoma,8.01 µM
same,TGI,MALME-3M melanoma,28.7 µM
same,TGI,MCF7 breast,6.95 µM
same,TGI,MDA-MB-231 breast,33.2 µM
same,TGI,MDA-MB-435,25.6 µM
same,TGI,MDA-N,24.9 µM
same,TGI,MOLT-4 leukemia,6.34 µM
same,TGI,NCI-H226 lung,36.3 µM
same,TGI,NCI-H23 lung,9.16 µM
same,TGI,NCI-H460 lung,26.2 µM
same,TGI,NCI-H522 lung,10.2 µM
same,TGI,NCI/ADR-RES ovarian,29.2 µM
same,TGI,OVCAR-3 ovarian,29.1 µM
same,TGI,OVCAR-4 ovarian,22.4 µM
same,TGI,OVCAR-5 ovarian,26.1 µM
same,TGI,OVCAR-8 ovarian,16.6 µM
same,TGI,PC-3 prostate,21.8 µM
same,TGI,RXF 393 renal,22.3 µM
same,TGI,SF-268 CNS,29.9 µM
same,TGI,SF-295 CNS,21.7 µM
same,TGI,SF-539 CNS,13.7 µM
same,TGI,SK-MEL-2 melanoma,20.4 µM
same,TGI,SK-MEL-28 melanoma,24.1 µM
same,TGI,SK-MEL-5 melanoma,26.4 µM
same,TGI,SK-OV-3 ovarian,27.6 µM
same,TGI,SN12C renal,26.2 µM
same,TGI,SNB-19 CNS,22.1 µM
same,TGI,SNB-75 CNS,32.5 µM
same,TGI,SR leukemia,6.06 µM
same,TGI,SW-620 colon,14.2 µM
same,TGI,T-47D breast,32.3 µM
same,TGI,TK-10 renal,33.5 µM
same,TGI,U251 CNS,23.2 µM
same,TGI,UACC-257 melanoma,29.6 µM
same,TGI,UACC-62 melanoma,25.3 µM
same,TGI,UO-31 renal,37.1 µM
COC/C=C\[C@]1(O)CCCC[C@@H]1CC(OC)OC,TGI,786-0 renal,> 100 µM
same,TGI,A498 renal,> 100 µM
same,TGI,A549 NSCLC,> 100 µM
same,TGI,ACHN renal,> 100 µM
same,TGI,CAKI-1 renal,> 100 µM
same,TGI,CCRF-CEM leukemia,> 100 µM
same,TGI,COLO 205 colon,> 100 µM
same,TGI,DU-145 prostate,> 100 µM
same,TGI,EKVX NSCLC,> 100 µM
same,TGI,HCC-2998 colon,> 100 µM
same,TGI,HCT-15 colon,> 100 µM
same,TGI,HL-60(TB) leukemia,81.8 µM
same,TGI,HOP-62 NSCLC,> 100 µM
same,TGI,HOP-92 NSCLC,> 100 µM
same,TGI,HS 578T breast,> 100 µM
same,TGI,HT29 colon,> 100 µM
same,TGI,IGROV1 ovarian,> 100 µM
same,TGI,K-562 leukemia,> 100 µM
same,TGI,KM12 colon,> 100 µM
same,TGI,LOX IMVI melanoma,> 100 µM
same,TGI,M14 melanoma,> 100 µM
same,TGI,MALME-3M melanoma,> 100 µM
same,TGI,MCF7 breast,> 100 µM
same,TGI,MDA-MB-231 breast,> 100 µM
same,TGI,MDA-MB-435,> 100 µM
same,TGI,MDA-N,> 100 µM
same,TGI,MOLT-4 leukemia,91.2 µM
same,TGI,NCI-H226 lung,> 100 µM
same,TGI,NCI-H23 lung,> 100 µM
same,TGI,NCI-H460 lung,> 100 µM
same,TGI,NCI-H522 lung,> 100 µM
same,TGI,NCI/ADR-RES ovarian,> 100 µM
same,TGI,OVCAR-3 ovarian,> 100 µM
same,TGI,OVCAR-4 ovarian,> 100 µM
same,TGI,OVCAR-5 ovarian,> 100 µM
same,TGI,OVCAR-8 ovarian,> 100 µM
same,TGI,PC-3 prostate,> 100 µM
same,TGI,RPMI-8226 leukemia,> 100 µM
same,TGI,RXF 393 renal,> 100 µM
same,TGI,SF-268 CNS,> 100 µM
same,TGI,SF-295 CNS,> 100 µM
same,TGI,SF-539 CNS,> 100 µM
same,TGI,SK-MEL-2 melanoma,> 100 µM
same,TGI,SK-MEL-28 melanoma,> 100 µM
same,TGI,SK-MEL-5 melanoma,> 100 µM
same,TGI,SK-OV-3 ovarian,> 100 µM
same,TGI,SNB-19 CNS,> 100 µM
same,TGI,SNB-75 CNS,> 100 µM
same,TGI,SR leukemia,> 100 µM
same,TGI,SW-620 colon,> 100 µM
same,TGI,T-47D breast,> 100 µM
same,TGI,TK-10 renal,> 100 µM
same,TGI,U251 CNS,> 100 µM
same,TGI,UACC-257 melanoma,> 100 µM
same,TGI,UACC-62 melanoma,> 100 µM
same,TGI,UO-31 renal,> 100 µM
